Measurements published in ChEMBL document CHEMBL3272295, “Drugs derived from cannabinoids. 5. delta6a,10a-Tetrahydrocannabinol and heterocyclic analogs containing aromatic side chains” (J Med Chem, 1976).

Legend:
Canis familiaris = experiment: Antianxiety activity in po dosed dog assessed as ataxia administered as single dose measured up to 24 hrs; type: functional; conditions: Canis lupus familiaris, read-out: MED
Rattus norvegicus [1] = experiment: Antipsychotic activity in rat assessed as reduction of methamphetamine-induced hyperactivity at 2.5 mg/kg, po administered prior to methamphetamine challenge relative to vehicle-treated control; type: functional; design: scale not given: the % may be the effect or the level left
Rattus norvegicus [2] = experiment: Antipsychotic activity in rat assessed as reduction of methamphetamine-induced hyperactivity at 10 mg/kg, po administered prior to methamphetamine challenge relative to vehicle-treated control; type: functional; design: scale not given: the % may be the effect or the level left
Rhesus monkey = experiment: Antianxiety activity in po dosed rhesus monkey assessed as antiagressive behavior measured every hour post dosing; type: functional; conditions: Macaca mulatta, read-out: MED
Rattus norvegicus [3] = experiment: Analgesic activity in po dosed Sprague-Dawley rat after 15 to 90 mins by tail flick test; type: functional
Rattus norvegicus [4] = experiment: Antianxiety activity in Long-Evans rat assessed as reduction in motor activity at 4 mg/kg, po after 2 hrs relative to vehicle-treated control; type: functional; design: scale not given: the % may be the effect or the level left
[5] = Acute toxicity in po dosed mouse; type: organism-based; conditions: in vivo
Felis catus [6] = experiment: Hypnotic activity in cat assessed as increase in total sleep time at 0.5 mg/kg administered orally through diet measured for 12 hrs by EEG analysis; type: functional; conditions: route oral
Rattus norvegicus [7] = experiment: Antianxiety activity in Long-Evans rat assessed as reduction in motor activity at 1 mg/kg, po after 2 hrs relative to vehicle-treated control; type: functional; design: scale not given: the % may be the effect or the level left
Felis catus [8] = experiment: Hypnotic activity in cat assessed as increase in non-REM sleep time at 0.5 mg/kg administered orally through diet measured for 12 hrs by EEG analysis; type: functional; conditions: route oral
Mus musculus [9] = experiment: Analgesic activity in po dosed mouse assessed as inhibition of acetic acid-induced writhing administered 30 mins prior to acetic acid challenge measured after 5 mins for 20 mins; type: functional
Mus musculus [10] = experiment: Antianxiety activity in albino BALB/cJ mouse assessed as reduction in footshock-induced fighting behavior at 5 mg/kg, po after 30 to 90 mins; type: functional; design: scale not given: the % may be the effect or the level left
Mus musculus [11] = experiment: Antianxiety activity in albino BALB/cJ mouse assessed as reduction in footshock-induced fighting behavior at 10 mg/kg, po after 30 to 90 mins; type: functional; design: scale not given: the % may be the effect or the level left
Rattus norvegicus [12] = experiment: Antihypertensive activity in spontaneously hypertensive rat model assessed as reduction in blood pressure at 10 mg/kg, po after 3 hrs; type: functional; design: scale not given: the % may be the effect or the level left
Rattus norvegicus [13] = experiment: Antihypertensive activity in spontaneously hypertensive rat model assessed as reduction in blood pressure at 10 mg/kg, po after 24 hrs; type: functional; design: scale not given: the % may be the effect or the level left
Rattus norvegicus [14] = species on record: Rattus norvegicus; experiment: animal or person; type: functional; conditions: Charles River, route oral
Description: Antidiarrheal activity in Charles River rat assessed as inhibition of castor oil-induced diarrhea by measuring protected animals at 0.5 mg/kg, po administered 1 hr prior to castor oil challenge measured after 1 hr relative to vehicle-treated control

Rattus norvegicus [15] = experiment: Antianxiety activity in Long-Evans rat assessed as reduction in motor activity at 5 mg/kg, po after 2 hrs relative to vehicle-treated control; type: functional; design: scale not given: the % may be the effect or the level left
Rattus norvegicus [16] = experiment: Antipsychotic activity in rat assessed as reduction of methamphetamine-induced hyperactivity at 5 mg/kg, po administered prior to methamphetamine challenge relative to vehicle-treated control; type: functional; design: scale not given: the % may be the effect or the level left
Mus musculus [17] = experiment: Analgesic activity in mouse assessed as inhibition of acetic acid-induced writhing at 40 mg/kg, po administered 30 mins prior to acetic acid challenge measured after 5 mins for 20 mins; type: functional

Compound | minimal effective dose (Canis familiaris) | Activity (Rattus norvegicus [1]) | Activity (Rattus norvegicus [2]) | minimal effective dose (Rhesus monkey) | ED50 (Rattus norvegicus [3]) | Activity (Rattus norvegicus [4]) | LD50 [5] | Time (Felis catus [6]) | Activity (Rattus norvegicus [7]) | Time (Felis catus [8]) | ED50 (Mus musculus [9]) | Activity (Mus musculus [10]) | Activity (Mus musculus [11]) | Activity (Rattus norvegicus [12]) | Activity (Rattus norvegicus [13]) | inhibition in vivo at 0.5 mg/kg (Rattus norvegicus [14]) | Activity (Rattus norvegicus [15]) | Activity (Rattus norvegicus [16]) | inhibition in vivo at 40 mg/kg (Mus musculus [17])
CC1CCC2=C(C1)c1c(OC(=O)CCCN3CCOCC3)cc(C(C)CCCc3ccc(F)cc3)cc1OC2(C)C.Cl (configuration not stated) | 10 mg/kg | 86% | 95% | 10 mg/kg | 1.7 mg/kg | 93% | ≥ 1000 mg/kg | 16 min | 68% | 39 min | 6 mg/kg | 8% | – | – | – | – | – | – | –
CC(CCCc1ccc(F)cc1)c1cc(O)c2c(c1)OC(C)(C)C1=C2CCC1 (configuration not stated) | 10 mg/kg | – | – | 10 mg/kg | – | – | ≥ 1000 mg/kg | – | – | – | – | – | 47% | 3% | 30% | 20% | 41% | 58% | 22%
